Data: patent publication US20210077469A1, “PHARMACEUTICAL COMBINATIONS OF EGFR INHIBITORS AND METHODS OF USE THEREOF” (DANA-FARBER CANCER INSTITUTE, INC., priority 2018, published 2021)

Target: L858R/T790M EGFR (Homo sapiens, UniProt P00533, L858R/T790M)
Details: Ba/F3 cells harboring L858R/T790M EGFR treated with inhibitor; lysates immunoprecipitated by biotinylated Compound A; FIG. 2A
Experimental: 15-20 μg of proteins lysates were aliquoted and loaded at the same time as the pull down assay to ensure the presence of EGFR protein, phospho-EGFR activity. Tubulin expression was assessed to ensure even loading of gels. 500 μg of protein was incubated with either biotinylated-linker (control) or with biotinylated Compound A for two hours before 50% NeutrAvidin agarose beads (Thermo Fisher Scientific) slurry was added for an hour to precipitate the EGFR that was associated to the biotinylated allosteric inhibitor. The beads were then washed three times with PBS containing 1% IGEPAL and an insulin syringe was used to remove extraneous buffer before the samples were suspended in 2×SDS sample preparation buffer for Western blotting analyses. All experiments were performed at least three times.

L858R/T790M EGFR, sequence (P00533 25-1210 T790M/L858R): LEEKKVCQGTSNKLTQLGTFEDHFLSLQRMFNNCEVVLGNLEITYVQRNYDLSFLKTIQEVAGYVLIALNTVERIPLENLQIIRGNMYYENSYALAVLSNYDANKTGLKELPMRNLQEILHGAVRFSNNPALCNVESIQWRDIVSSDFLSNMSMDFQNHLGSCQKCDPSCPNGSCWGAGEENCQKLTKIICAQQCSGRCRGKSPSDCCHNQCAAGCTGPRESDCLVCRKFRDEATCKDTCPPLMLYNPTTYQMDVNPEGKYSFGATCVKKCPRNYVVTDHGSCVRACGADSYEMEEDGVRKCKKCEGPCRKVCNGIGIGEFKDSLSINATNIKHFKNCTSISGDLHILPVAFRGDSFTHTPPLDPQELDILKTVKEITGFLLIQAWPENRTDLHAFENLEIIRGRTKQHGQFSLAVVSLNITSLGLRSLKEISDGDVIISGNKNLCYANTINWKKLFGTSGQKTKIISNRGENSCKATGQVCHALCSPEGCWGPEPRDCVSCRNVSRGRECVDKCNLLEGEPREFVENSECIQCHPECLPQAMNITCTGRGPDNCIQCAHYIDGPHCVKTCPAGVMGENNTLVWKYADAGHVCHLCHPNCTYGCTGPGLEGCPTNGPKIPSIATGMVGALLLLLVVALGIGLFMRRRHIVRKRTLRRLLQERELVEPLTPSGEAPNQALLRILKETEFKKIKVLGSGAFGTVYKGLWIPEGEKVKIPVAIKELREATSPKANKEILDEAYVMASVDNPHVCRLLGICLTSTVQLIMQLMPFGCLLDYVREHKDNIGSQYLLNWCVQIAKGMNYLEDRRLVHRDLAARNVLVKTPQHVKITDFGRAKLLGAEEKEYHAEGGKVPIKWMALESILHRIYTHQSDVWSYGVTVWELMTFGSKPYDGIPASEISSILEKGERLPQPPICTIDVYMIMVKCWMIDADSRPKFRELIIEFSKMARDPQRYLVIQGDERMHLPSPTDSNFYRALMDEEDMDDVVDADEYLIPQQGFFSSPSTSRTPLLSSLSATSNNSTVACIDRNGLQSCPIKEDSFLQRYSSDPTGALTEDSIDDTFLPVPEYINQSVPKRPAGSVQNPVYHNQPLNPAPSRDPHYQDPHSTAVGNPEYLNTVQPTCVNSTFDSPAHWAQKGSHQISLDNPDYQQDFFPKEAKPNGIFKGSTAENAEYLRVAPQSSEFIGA

interference with binding of Compound A to EGFR: interfere
Compound: C=CC(=O)Nc1cccc(Oc2nc(Nc3ccc(N4CCN(C)CC4)cc3OC)ncc2Cl)c1 [WZ-4002]
